Results on six compounds are retold here after PMC4113814, “Bioactive Cembrane Derivatives from the Indian Ocean Soft Coral, Sinularia kavarattiensis” (Marine Drugs, 2014).

A word on the IC50: it is the concentration that gives 50% inhibition. The term inhibition denotes the relative decrease from the control value, in per cent.

In brackets after ≈: the same amount, converted by molar mass.

A short description of series [1]: MTT cytotoxicity assay on primary microglial cell cultures. Particulars: Wistar, rat, mean of triplicate. Format: cell-based, Wistar rats. The procedure: (§1) Primary microglial cell cultures were prepared from brains of newborn Wistar rats. Ethics approval for the experiments was granted by the EBIOTEC Review Board (Valter Lombardi, Iván Carrera and Lucía Fernández-Novoa; Project Identification Code: Sinularia Project October 2013; approved 30 October 2013). The neocortex of one-day-old postnatal rats was aseptically dissected out, and the meninges and blood vessels were carefully removed. Following cutting in a medium containing 20% horse serum, the suspension was filtered through a […] and transferred as a single cell suspension to culture dishes, using 5.0 mL of medium per dish. The cultures were incubated at 37 °C in an atmosphere containing 5% CO2. The culture medium consisted of Minimum Essential Medium Eagle, supplemented with L-glutamine, amino acids, vitamins, penicillin, gentamicin, sodium bicarbonate and 20% heat-inactivated horse serum. The medium was changed twice a week. After 1 week, the concentration of horse serum was reduced to 10%. After sixteen days in culture, cells were treated with 1 μg/mL of lipopolysaccharide (LPS). After six hours, different concentrations (1.0 μg/mL, 2.5 μg/mL and 5.0 μg/mL) of Compounds 1–4 and 6 were added to each well, and plates were incubated for 72 h at 37 °C in an atmosphere containing 5% CO2. Positive controls were treated only with LPS, while negative controls were treated with complete medium. After 72 h of incubation, cells were counted, and 2.5 mL of the supernatants were collected from each well and frozen at −40 °C for cytokine analyses. All experiments were carried out twice.
(§2) The cytotoxicity of the compounds was measured by the colorimetric methyl thiazol tetrazolium (MTT) assay and scored as a percentage of the absorbance reduction of treated cultures versus untreated control cultures. Primary microglial cell cultures were seeded into 96-well microplates at 10^4 cells per well and allowed to grow for 24 h. The initial concentration of Compounds 1–4 and 6 was 100 μg/mL in DMSO. The compounds were serially diluted in complete culture medium with two-fold dilutions (100, 50, 25, 12.5, 6.25, 3.12 and 1.56 μg/mL for in vitro cytotoxicity; 12.5, 6.25, 3.12, 1.56, 0.78 and 0.39 μg/mL for cytokine release). Different concentrations of the compounds were added to each well, and Tamoxifen was used as a positive control, with concentrations ranging from 50 to 1.56 μg/mL. Plates were incubated at 37 °C for 72 h under 5% CO2 atmosphere. Then, the 50 μL of MTT-PBS solution in culture medium were added to each well. The plates were further incubated for 4 h under the same conditions. The medium was then removed and replaced with 200 μL of DMSO to solubilize the MTT formazan product. The solutions were shaken for 20 min, and the absorbance was measured at 570 nm. […] Each value represents the mean of triplicate determinations. The IC50 values were calculated from the compound concentration-response curves.
(Formazan colour is commonly taken as a measure of viable cells.)

Series [2] concerns IL-4. Kind of series: IL-4 release in supernatants of LPS-treated primary microglial cells (ELISA). The class given is cell-based, Wistar rats. Particulars: 72 h; for IL-4 release: LPS-treated. The method, then: as §1, with “After six hours, different concentrations (1.0 μg/mL, 2.5 μg/mL and 5.0 μg/mL) of Compounds 1–4 and 6 were added to each well, and plates were incubated for 72 h at 37 °C in an atmosphere containing 5% CO2.” left out
(§3) The supernatants obtained from cell cultures were analyzed for TNF-α, IL-1β, IL-4, IL-6, IL-8, IL-10 and IL-18 using commercially available ELISA kits following the manufacturers’ instructions. All samples were assayed in duplicate, and equivocal results were repeated. The cytokine concentration was calculated from a standard curve of the corresponding recombinant cytokine.
as §2, with “[…] […]” for “The initial concentration of Compounds 1–4 and 6 was 100 μg/mL in DMSO. The compounds were serially diluted in complete culture medium with two-fold dilutions (100, 50, 25, 12.5, 6.25, 3.12 and 1.56 μg/mL for in vitro cytotoxicity; 12.5, 6.25, 3.12, 1.56, 0.78 and 0.39 μg/mL for cytokine release).”
For orientation: In an ELISA, binding on a coated surface is turned into a signal by an enzyme label.

The subject of series [3] is IL-8. Kind of series: IL-8 release in supernatants of LPS-treated primary microglial cells (ELISA). The class given is cell-based, Wistar rats. Particulars: 72 h; for IL-8 release: LPS-treated. The method, then: as §1, with “After six hours, different concentrations (1.0 μg/mL, 2.5 μg/mL and 5.0 μg/mL) of Compounds 1–4 and 6 were added to each well, and plates were incubated for 72 h at 37 °C in an atmosphere containing 5% CO2.” left out
as §3
as §2, with “The initial concentration of Compounds 1–4 and 6 was 100 μg/mL in DMSO.” left out

For series [4], the system named is IL-18. Kind of series: IL-18 release in supernatants of LPS-treated primary microglial cells (ELISA). The note with it: 72 h; for IL-18 release: LPS-treated. The class given is cell-based, Wistar rats. The procedure: as §1, with “After six hours, different concentrations (1.0 μg/mL, 2.5 μg/mL and 5.0 μg/mL) of Compounds 1–4 and 6 were added to each well, and plates were incubated for 72 h at 37 °C in an atmosphere containing 5% CO2.” left out
as §3
as §2, with “[…] […]” for “The initial concentration of Compounds 1–4 and 6 was 100 μg/mL in DMSO. The compounds were serially diluted in complete culture medium with two-fold dilutions (100, 50, 25, 12.5, 6.25, 3.12 and 1.56 μg/mL for in vitro cytotoxicity; 12.5, 6.25, 3.12, 1.56, 0.78 and 0.39 μg/mL for cytokine release).”

Series [5] relates to IL-1β. Kind of series: IL-1β release in supernatants of LPS-treated primary microglial cells (ELISA). The note with it: 72 h; for IL-1β release: LPS-treated. The class given is cell-based, Wistar rats. The method, then:
as §1, with “After six hours, different concentrations (1.0 μg/mL, 2.5 μg/mL and 5.0 μg/mL) of Compounds 1–4 and 6 were added to each well, and plates were incubated for 72 h at 37 °C in an atmosphere containing 5% CO2.” left out
as §3
as §2, with “The initial concentration of Compounds 1–4 and 6 was 100 μg/mL in DMSO.” left out

Series [6] has as its system IL-10. Kind of series: IL-10 release in supernatants of LPS-treated primary microglial cells (ELISA). The class given is cell-based, Wistar rats. The note with it: 72 h; for IL-10 release: LPS-treated. The method, then: as §1, with “After six hours, different concentrations (1.0 μg/mL, 2.5 μg/mL and 5.0 μg/mL) of Compounds 1–4 and 6 were added to each well, and plates were incubated for 72 h at 37 °C in an atmosphere containing 5% CO2.” left out
as §3
as §2, with “The initial concentration of Compounds 1–4 and 6 was 100 μg/mL in DMSO.” left out

Series [7] concerns IL-6. Kind of series: IL-6 release in supernatants of LPS-treated primary microglial cells (ELISA). The note with it: 72 h; for IL-6 release: LPS-treated. Format: cell-based, Wistar rats. The method, then: as §1, with “After six hours, different concentrations (1.0 μg/mL, 2.5 μg/mL and 5.0 μg/mL) of Compounds 1–4 and 6 were added to each well, and plates were incubated for 72 h at 37 °C in an atmosphere containing 5% CO2.” left out
as §3
as §2, with “The initial concentration of Compounds 1–4 and 6 was 100 μg/mL in DMSO.” left out

The test system of series [8] is TNF-α. Kind of series: TNF-α release in supernatants of LPS-treated primary microglial cells (ELISA). The class given is cell-based, Wistar rats. The note with it: 72 h; for TNF-α release: LPS-treated. The method, then: as §1, with “After six hours, different concentrations (1.0 μg/mL, 2.5 μg/mL and 5.0 μg/mL) of Compounds 1–4 and 6 were added to each well, and plates were incubated for 72 h at 37 °C in an atmosphere containing 5% CO2.” left out
as §3
as §2, with “The initial concentration of Compounds 1–4 and 6 was 100 μg/mL in DMSO.” left out

In series [9] the test system is BHK-CHIKV-NCT cells. Kind of series: Cytotoxicity assay by ATP quantitation (CellTiter GLO). A general note: In ATP-based viability assays light output follows the ATP content of the culture.
Series [10] deals with BHK-CHIKV-NCT cells. Kind of series: Cell-IQ live cell imaging, cytotoxicity by cell classification (viable cells). Particulars: 48 h, control compounds.
Series [11] concerns CHIKV replicon. Kind of series: microbe, parasite or virus in culture. The note with it: Chikungunya virus; for inhibition at 100 µM: 48 h, read-out: inhibition of the CHIKV replicon (Rluc marker levels).
Series [12] has as its system CHIKV replicon. Kind of series: CHIKV replicon assay, Cell-IQ live cell imaging, EGFP fluorescence intensity. Particulars: 48 h; for decrease in EGFP marker fluorescence intensity: 50 and 100 μM.

With `C=C(C)[C@@H]1C/C=C(\C(=O)OC)CC(=O)C[C@]2(C)CC(=O)[C@H](CC(=O)C1)O2` [Compound 4], in [1], the IC50 at 72 h was over 100 µg/mL. For the same compound, the IL-4 release stood at 2.2 ± 0.2 pg/mL in series [2] (C1: 1.0 μg/mL), 2.3 ± 0.5 pg/mL in [2] (C2: 2.5 μg/mL) and 1.8 ± 0.2 pg/mL in [2] (C3: 5.0 μg/mL). Besides, the IC50 is over 12.5 µg/mL in [2] (Rattus norvegicus, read-out: IL-4 IC50); over 12.5 µg/mL in series [3] (Rattus norvegicus, read-out: IL-8 IC50); over 12.5 µg/mL in series [4] (Rattus norvegicus, read-out: IL-18 IC50); over 12.5 µg/mL in [5] (Rattus norvegicus, read-out: IL-1β IC50); over 12.5 µg/mL in series [6] (Rattus norvegicus, read-out: IL-10 IC50); over 12.5 µg/mL in [7] (Rattus norvegicus, read-out: IL-6 IC50). For the same compound, the IC50 in series [8] (Rattus norvegicus, read-out: TNF-α IC50) was over 12.5 µg/mL. Besides, the IL-8 release in [3] (C2: 2.5 μg/mL) and in series [3] (C3: 5.0 μg/mL) was 247 ± 8 pg/mL in each case. Besides, the IL-18 release in [4] (C2: 2.5 μg/mL) and in [4] (C3: 5.0 μg/mL) was 312 ± 8.2 pg/mL each time. Moreover, the IL-1β release in series [5] (C1: 1.0 μg/mL) was found to be 1.01 ± 0.04 pg/mL; in [5] (C2: 2.5 μg/mL), 1.02 ± 0.04 pg/mL; in series [5] (C3: 5.0 μg/mL) it was 1.01 ± 0.02 pg/mL. Moreover, the results for the IL-10 release in series [6] (C1: 1.0 μg/mL), in [6] (C2: 2.5 μg/mL) and in series [6] (C3: 5.0 μg/mL) were 8.4 ± 2.6 pg/mL, 7.9 ± 2.5 pg/mL and 7.8 ± 3.2 pg/mL, respectively. For the same compound, the IL-6 release in series [7] (C1: 1.0 μg/mL) is recorded as 12.1 ± 1.3 pg/mL; in series [7] (C2: 2.5 μg/mL), 14.1 ± 1.1 pg/mL; in [7] (C3: 5.0 μg/mL), 12.1 ± 1.3 pg/mL. Further, the TNF-α release in [8] (C1: 1.0 μg/mL) is reported as 33.2 ± 2.8 pg/mL; in series [8] (C2: 2.5 μg/mL), 29.8 ± 2.5 pg/mL; in series [8] (C3: 5.0 μg/mL) it was 32.5 ± 3.7 pg/mL.

For the compound polymyxin B [reference compound], the average toxicity in series [9] (10,000 IU/mL) is given as 93%. Besides, the “ED50 for the cytotoxic activity” value in series [9] (positive control) is on record as 5900 IU/mL. Further, the “effect of control compound on number of viable cells / cell morphology” value in series [10] is recorded as “radically decreases”.

Turning to `C=C1/C=C/[C@H](C(C)C)CCC(=C)[C@H](O)CC1` [Compound 5, ent-germacra-4(15),5E,10(14)-trien-1β-ol], the inhibition at 100 µM in series [11] fell in the range of 0.5 to 63%. In series [12], the “decrease in EGFP marker fluorescence intensity” value is “only moderate decreases”.

Consider `O=c1cnn([C@@H]2O[C@H](CO)[C@@H](O)[C@H]2O)c(=O)[nH]1` [Compound 6-azauridine, 6-azauridine, reference compound], for which, in [11] (read-out: IC50, inhibition of replicon (Rluc detection)), the IC50 is 2 µM. The inhibition at 10 µM in series [11] (read-out: average inhibition (Rluc)) was 69%. In [10], the “effect of control compound on number of viable cells / cell morphology” value is “without affecting cell morphology”. Besides, the “effect of control compound on fluorescence intensity” value in [12] (control compounds) was “decreases the fluorescence intensity”.

As to `C=C(C)C1CC(=O)C2C3C(=O)CC(C=C3C(C)=O)C(C(=O)O)C2C1` (stereo not drawn) [Compound 7, kavaranolide], the inhibition at 100 µM in series [11] lay within 0.5 to 63%. In series [12], the “decrease in EGFP marker fluorescence intensity” value was “only moderate decreases”.

With `CC/C(=C(\c1ccccc1)c1ccc(OCCN(C)C)cc1)c1ccccc1` [Tamoxifen, reference compound], in series [1], the IC50 at 72 h was 3.6 µg/mL (≈ 9.69 µM).
